Measurements taken from PMC7674269 (Biochemistry, 2020).

Experiments:
sortilin = target: T1, sortilin (Homo sapiens, UniProt Q99523); assay: SPR, immobilised sortilin, CM5 chip; format: binding
T1 sequence (Q99523 78-755): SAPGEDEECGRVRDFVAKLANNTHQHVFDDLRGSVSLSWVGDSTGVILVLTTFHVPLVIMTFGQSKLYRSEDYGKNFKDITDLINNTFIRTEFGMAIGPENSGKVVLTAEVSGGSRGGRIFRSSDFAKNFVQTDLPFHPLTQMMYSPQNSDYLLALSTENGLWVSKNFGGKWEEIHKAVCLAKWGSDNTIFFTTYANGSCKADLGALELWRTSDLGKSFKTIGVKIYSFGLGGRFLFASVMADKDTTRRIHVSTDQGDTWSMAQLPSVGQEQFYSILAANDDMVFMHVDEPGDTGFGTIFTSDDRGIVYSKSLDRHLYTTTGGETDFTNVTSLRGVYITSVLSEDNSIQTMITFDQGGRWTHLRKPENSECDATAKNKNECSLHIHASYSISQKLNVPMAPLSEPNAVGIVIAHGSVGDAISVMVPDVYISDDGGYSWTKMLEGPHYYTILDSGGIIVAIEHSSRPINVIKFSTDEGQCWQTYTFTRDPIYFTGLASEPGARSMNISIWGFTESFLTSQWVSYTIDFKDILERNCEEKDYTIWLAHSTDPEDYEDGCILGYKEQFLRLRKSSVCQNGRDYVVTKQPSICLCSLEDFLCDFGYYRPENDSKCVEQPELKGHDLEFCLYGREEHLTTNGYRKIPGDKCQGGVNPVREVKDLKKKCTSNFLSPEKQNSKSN

[1] = target: T2, Neurotensin C-terminal fragment (Ct-NT) C-terminal 4 residues (Homo sapiens, UniProt P30990); assay: SPR
T2 chain: PYIL

[2] = target: T2, Neurotensin C-terminal fragment (Ct-NT) …; assay: SPR competition with PIP3 nanodiscs

C[C@@H](NC(=O)c1ccccc1NCC(=O)O)c1ccccc1 [cpd541]
Kd (sortilin): 6900 ± 1100 nM

CCCCCCCC(=O)OC[C@H](COP(=O)(O)O[C@H]1[C@H](O)[C@@H](OP(=O)(O)O)[C@H](OP(=O)(O)O)[C@@H](OP(=O)(O)O)[C@H]1O)OC(=O)CCCCCCC [diC8-PIP3]
Kd (sortilin): 4200 ± 400 nM

CN1CCC[C@H]1C(=O)Nc1cccc(NC(=O)CCc2ccccc2)c1 [cpd984, (2S)-1-methylN-3-[(3-phenypropanoyl)-amino]phenylpyrrolidine-2-carboxamied]
Kd (sortilin): 118 ± 38 nM

B1: Sortilin luminal beta-propeller domain (protein)
chain: NNTHQHVFDDLRGSVSLSWVGDSTGVILVLTTFHVPLVIMTFGQSKLYRSEDYGKNFKDITDLINNTFIRTEFGMAIGPENSGKVVLTAEVSGGSRGGRIFRSSDFAKNFVQTDLPFHPLTQMMYSPQNSDYLLALSTENGLWVSKNFGGKWEEIHKAVCLAKWGSDNTIFFTTYANGSCKADLGALELWRTSDLGKSFKTIGVKIYSFGLGGRFLFASVMADKDTTRRIHVSTDQGDTWSMAQLPSVGQEQFYSILAANDDMVFMHVDEPGDTGFGTIFTSDDRGIVYSKSLDRHLYTTTGGETDFTNVTSLRGVYITSVLSEDNSIQTMITFDQGGRWTHLRKPENSECDATAKNKNECSLHIHASYSISQKLNVPMAPLSEPNAVGIVIAHGSVGDAISVMVPDVYISDDGGYSWTKMLEGPHYYTILDSGGIIVAIEHSSRPINVIKFSTDEGQCWQTYTFTRDPIYFTGLASEPGARSMNISIWGFTESFLTSQWVSYTIDF
Kd [1]: ~120 nM | IC50 [2]: 157 nM
